Measurements taken from patent US11203571B2, “Sulfonamides as modulators of sodium channels” (VERTEX PHARMACEUTICALS INCORPORATED, priority 2013, dated 2021).

Columns and labels:
[1] = Human liver microsome assay; type: in vitro ADME; details: 1 uM substrate, 0.5 mg/mL liver microsome, 2 mM NADPH, 37° C., referenced against time zero control
Description: Human Liver Microsome Assay Protocol
Liver microsomal stability data were generated as follows. Substrates were incubated at 37° C. and shaken for 30 minutes in a phosphate buffered solution with human liver microsomes and the cofactor NADPH. A time zero control was similarly prepared, however with NADPH excluded. The final incubation concentrations were 1 uM substrate (0.2% DMSO), 0.5 mg/mL liver microsome, 2 mM NADPH, and 0.1 M phosphate. Reactions were quenched and proteins precipitated with the addition of 2 volume equivalents of ice cold acetonitrile containing an internal standard. Following a centrifugation step, aliquots from the quenched incubations were further diluted with 4 volume equivalents of a 50% aqueous methanol solution and then subjected to LC/MS/MS analysis for quantitation of parent substrate. Microsome stability values were calculated as the percent of substrate remaining after 30 minutes referenced against the time zero control.

human Nav1.8 = human Nav1.8 (Homo sapiens (Human), UniProt Q9Y5Y9); assay: E-VIPR optical membrane potential assay with electrical stimulation; type: cell-based; details: HEK cells expressing human Nav1.8
Chain of human Nav1.8 (Q9Y5Y9 whole entry): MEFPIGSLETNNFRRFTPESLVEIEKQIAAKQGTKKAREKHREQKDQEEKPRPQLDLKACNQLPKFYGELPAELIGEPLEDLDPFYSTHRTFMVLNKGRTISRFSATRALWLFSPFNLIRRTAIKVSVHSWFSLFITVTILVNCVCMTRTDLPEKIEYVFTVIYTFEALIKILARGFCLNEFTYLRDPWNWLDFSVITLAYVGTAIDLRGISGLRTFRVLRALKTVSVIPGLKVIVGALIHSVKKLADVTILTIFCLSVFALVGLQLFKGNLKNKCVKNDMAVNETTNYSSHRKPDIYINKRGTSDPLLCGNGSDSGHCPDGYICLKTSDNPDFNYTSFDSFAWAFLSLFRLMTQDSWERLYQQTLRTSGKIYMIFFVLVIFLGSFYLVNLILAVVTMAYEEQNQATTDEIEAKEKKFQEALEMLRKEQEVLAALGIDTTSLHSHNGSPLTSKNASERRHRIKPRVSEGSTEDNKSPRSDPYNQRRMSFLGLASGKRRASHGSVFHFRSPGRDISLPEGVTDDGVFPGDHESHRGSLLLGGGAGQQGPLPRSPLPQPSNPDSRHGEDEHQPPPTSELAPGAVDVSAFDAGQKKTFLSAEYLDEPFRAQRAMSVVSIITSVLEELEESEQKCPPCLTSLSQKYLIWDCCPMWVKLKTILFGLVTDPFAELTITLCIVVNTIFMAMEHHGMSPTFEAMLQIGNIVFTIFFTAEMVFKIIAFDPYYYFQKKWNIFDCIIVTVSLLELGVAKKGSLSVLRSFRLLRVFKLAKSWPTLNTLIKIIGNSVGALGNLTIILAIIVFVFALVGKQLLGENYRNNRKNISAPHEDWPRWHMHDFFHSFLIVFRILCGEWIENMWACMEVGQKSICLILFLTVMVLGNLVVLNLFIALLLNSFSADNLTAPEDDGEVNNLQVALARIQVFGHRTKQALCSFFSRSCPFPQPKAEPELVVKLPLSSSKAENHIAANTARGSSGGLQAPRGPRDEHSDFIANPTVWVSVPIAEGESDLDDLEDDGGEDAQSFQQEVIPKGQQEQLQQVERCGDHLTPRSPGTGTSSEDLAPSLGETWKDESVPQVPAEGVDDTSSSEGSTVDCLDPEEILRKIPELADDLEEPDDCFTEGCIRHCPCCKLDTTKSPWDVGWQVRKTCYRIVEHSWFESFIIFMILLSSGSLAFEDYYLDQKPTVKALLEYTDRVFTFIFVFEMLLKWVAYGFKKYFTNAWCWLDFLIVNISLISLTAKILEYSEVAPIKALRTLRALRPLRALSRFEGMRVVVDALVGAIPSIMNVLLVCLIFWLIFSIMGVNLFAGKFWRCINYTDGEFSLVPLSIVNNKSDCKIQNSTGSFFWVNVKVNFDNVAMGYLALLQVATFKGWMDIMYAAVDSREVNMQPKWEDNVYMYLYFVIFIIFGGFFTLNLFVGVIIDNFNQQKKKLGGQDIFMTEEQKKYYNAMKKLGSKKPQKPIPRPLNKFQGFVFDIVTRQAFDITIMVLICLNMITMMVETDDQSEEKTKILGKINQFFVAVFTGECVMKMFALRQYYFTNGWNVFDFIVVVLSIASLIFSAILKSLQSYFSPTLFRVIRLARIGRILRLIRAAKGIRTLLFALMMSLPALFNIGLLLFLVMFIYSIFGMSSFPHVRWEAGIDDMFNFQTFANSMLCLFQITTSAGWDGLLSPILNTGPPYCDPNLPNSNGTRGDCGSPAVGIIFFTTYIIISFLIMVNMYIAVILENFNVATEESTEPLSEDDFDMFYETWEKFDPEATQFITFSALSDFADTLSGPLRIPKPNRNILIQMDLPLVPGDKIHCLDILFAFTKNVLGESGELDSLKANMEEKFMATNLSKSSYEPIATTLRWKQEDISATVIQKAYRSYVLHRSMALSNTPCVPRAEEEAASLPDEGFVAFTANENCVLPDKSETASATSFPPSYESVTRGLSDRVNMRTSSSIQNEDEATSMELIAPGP
From the text: E-VIPR Optical Membrane Potential Assay Method with Electrical Stimulation
Sodium channels are voltage-dependent proteins that can be activated by inducing membrane voltage changes by applying electric fields. The electrical stimulation instrument and methods of use are described in Ion Channel Assay Methods PCT/US01/21652, herein incorporated by reference and are referred to as E-VIPR. The instrument comprises a microtiter plate handler, an optical system for exciting the coumarin dye while simultaneously recording the coumarin and oxonol emissions, a waveform generator, a current- or voltage-controlled amplifier, and a device for inserting electrodes in well. Under integrated computer control, this instrument passes user-programmed electrical stimulus protocols to cells within the wells of the microtiter plate.
24 hours before the assay on E-VIPR, HEK cells expressing human Nav1.8 were seeded in 384-well poly-lysine coated plates at 15,000-20,000 cells per well. HEK cells were grown in media (exact composition is specific to each cell type and NaV subtype) supplemented with 10% FBS (Fetal Bovine Serum, qualified; GibcoBRL #16140-071) and 1% Pen-Strep (Penicillin-Streptomycin; GibcoBRL #15140-122). Cells were grown in vented cap flasks, in 90% humidity and 5% CO2.
• 100 mg/mL Pluronic F-127 (Sigma #P2443), in dry DMSO • Compound Plates: 384-well round bottom plate, e.g. Corning 384-well Polypropylene Round Bottom #3656 • Cell Plates: 384-well tissue culture treated plate, e.g. Greiner #781091-1B • 10 mM DiSBAC6(3) (Aurora #00-100-010) in dry DMSO • 10 mM CC2-DMPE (Aurora #00-100-008) in dry DMSO • 200 mM ABSC1 in H20
Bath1 buffer: Glucose 10 mM (1.8 g/L), Magnesium Chloride (Anhydrous), 1 mM (0.095 g/L), Calcium Chloride, 2 mM (0.222 g/L), HEPES 10 mM (2.38 g/L), Potassium Chloride, 4.5 mM (0.335 g/L), Sodium Chloride 160 mM (9.35 g/L).
Hexyl Dye Solution: Bath1 Buffer+0.5% β-cyclodextrin (make this prior to use, Sigma #C4767), 8 μM CC2-DMPE+2.5 μM DiSBAC6(3). To make the solution Added volume of 10% Pluronic F127 stock equal to volumes of CC2-DMPE+DiSBAC6(3). The order of preparation was first mix Pluronic and CC2-DMPE, then added DiSBAC6(3) while vortexing, then added Bath1+β-Cyclodextrin.
1) Pre-spotted compounds (in neat DMSO) into compound plates. Vehicle control (neat DMSO), the positive control (20 mM DMSO stock tetracaine, 125 μM final in assay) and test compounds were added to each well at 160× desired final concentration in neat DMSO. Final compound plate volume was 80 μL (80-fold intermediate dilution from 1 μL DMSO spot; 160-fold final dilution after transfer to cell plate). Final DMSO concentration for all wells in assay was 0.625%.
2) Prepared Hexyl Dye Solution.
3) Prepared cell plates. On the day of the assay, medium was aspirated and cells were washed three times with 100 μL of Bath1 Solution, maintaining 25 μL residual volume in each well.
4) Dispensed 25 μL per well of Hexyl Dye Solution into cell plates. Incubated for 20-35 minutes at room temp or ambient conditions.
5) Dispensed 80 μL per well of Bath1 into compound plates. Acid Yellow-17 (1 mM) was added and Potassium Chloride was altered from 4.5 to 20 mM depending on the NaV subtype and assay sensitivity.
6) Washed cell plates three times with 100 μL per well of Bath1, leaving 25 μL of residual volume. Then transferred 25 uL per well from Compound Plates to Cell Plates. Incubated for 20-35 minutes at room temp/ambient condition.
7) Read Plate on E-VIPR. Used the current-controlled amplifier to deliver stimulation wave pulses for 10 seconds and a scan rate of 200 Hz. A pre-stimulus recording was performed for 0.5 seconds to obtain the un-stimulated intensities baseline. The stimulatory waveform was followed by 0.5 seconds of post-stimulation recording to examine the relaxation to the resting state.
Data was analyzed and reported as normalized ratios of emission intensities measured in the 460 nm and 580 nm channels. […]

| HLM: percent unchanged after 30 min [1] [%] | IC50 (human Nav1.8) [nM] | Structure (SMILES) |
| --- | --- | --- |
| 102 | 5 | NS(=O)(=O)c1cccc(NC(=O)c2c(Oc3ccc(F)cc3Cl)cccc2C(F)(F)F)c1 [Compound 33, 2-(2-chloro-4-fluorophenoxy)-N-(3-sulfamoylphenyl)-6-(trifluoromethyl)benzamide] |
| 103 | 9 | Cc1cc(Cl)ccc1Oc1ccc(C(F)(F)F)cc1C(=O)Nc1cccc(S(N)(=O)=O)c1 [Compound 30, 2-(4-chloro-2-methylphenoxy)-N-(3-sulfamoylphenyl)-5-(trifluoromethyl)benzamide] |
| 86 | 7 | COc1cc(F)ccc1Oc1ccc(Cl)cc1C(=O)Nc1cccc(S(N)(=O)=O)c1 [Compound 16, 5-chloro-2-(4-fluoro-2-methoxyphenoxy)-N-(3-sulfamoylphenyl)benzamide] |
| 91 | 0.9 | COc1cc(F)ccc1Oc1cc(Cl)cc(Cl)c1C(=O)Nc1cccc(S(N)(=O)=O)c1 [Compound 95, 2,4-dichloro-6-(4-fluoro-2-methoxyphenoxy)-N-(3-sulfamoylphenyl)benzamide] |
| 78 | 2 | COc1cc(F)ccc1Oc1cccc(C(F)(F)F)c1C(=O)Nc1cccc(S(N)(=O)=O)c1 [Compound 13, 2-(4-fluoro-2-methoxyphenoxy)-N-(3-sulfamoylphenyl)-6-(trifluoromethyl)benzamide] |
| 66 | 4 | COc1ccc(Oc2ccc(C(F)(F)F)cc2C(=O)Nc2cccc(S(N)(=O)=O)c2)c(OC)c1 [Compound 36, 2-(2,4-dimethoxyphenoxy)-N-(3-sulfamoylphenyl)-5-(trifluoromethyl)benzamide] |
| 106 | 13 | NS(=O)(=O)c1cccc(NC(=O)c2cc(C(F)(F)F)ccc2Oc2ccc(F)cc2F)c1 [Compound 6, 2-(2,4-difluorophenoxy)-N-(3-sulfamoylphenyl)-5-(trifluoromethyl)benzamide] |
| 96 | 1 | Cc1cc(F)ccc1Oc1cc(Cl)cc(Cl)c1C(=O)Nc1cccc(S(N)(=O)=O)c1 [Compound 96, 2,4-dichloro-6-(4-fluoro-2-methylphenoxy)-N-(3-sulfamoylphenyl)benzamide] |
| 87 | 1 | COc1cc(F)ccc1Oc1cc(C(F)(F)F)cc(C(F)(F)F)c1C(=O)Nc1cccc(S(N)(=O)=O)c1 [Compound 89, 2-(4-fluoro-2-methoxyphenoxy)-N-(3-sulfamoylphenyl)-4,6-bis(trifluoromethyl)benzamide] |
| 95 | 22 | NS(=O)(=O)c1cccc(NC(=O)c2cc(C(F)(F)F)ccc2Oc2ccc(OC(F)F)cc2)c1 [Compound 41, 2-(4-(difluoromethoxy)phenoxy)-N-(3-sulfamoylphenyl)-5-(trifluoromethyl)benzamide] |
| 76 | 6 | CC(C)Oc1ccc(Oc2ccc(C(F)(F)F)cc2C(=O)Nc2cccc(S(N)(=O)=O)c2)cc1 [Compound 37, 2-(4-isopropoxyphenoxy)-N-(3-sulfamoylphenyl)-5-(trifluoromethyl)benzamide] |
| 90 | 21 | COc1ccc(Oc2cc(C(F)(F)F)ccc2C(=O)Nc2cccc(S(N)(=O)=O)c2)cc1F [Compound 43, 2-(3-fluoro-4-methoxyphenoxy)-N-(3-sulfamoylphenyl)-4-(trifluoromethyl)benzamide] |
| 102 | 15 | NS(=O)(=O)c1cccc(NC(=O)c2c(Oc3ccccc3Cl)cccc2C(F)(F)F)c1 [Compound 74, 2-(2-chlorophenoxy)-N-(3-sulfamoylphenyl)-6-(trifluoromethyl)benzamide] |
| 108 | 10 | NS(=O)(=O)c1cccc(NC(=O)c2ccc(Cl)cc2Oc2ccc(F)cc2Cl)c1 [Compound 8, 4-chloro-2-(2-chloro-4-fluorophenoxy)-N-(3-sulfamoylphenyl)benzamide] |
| 91 | 26 | COc1ccc(Oc2cc(C(F)(F)F)ccc2C(=O)Nc2cccc(S(N)(=O)=O)c2)cc1Cl [Compound 67, 2-(3-chloro-4-methoxyphenoxy)-N-(3-sulfamoylphenyl)-4-(trifluoromethyl)benzamide] |
| 100 | 14 | Cc1ccccc1Oc1cc(C(F)(F)F)ccc1C(=O)Nc1cccc(S(N)(=O)=O)c1 [Compound 47, N-(3-sulfamoylphenyl)-2-(o-tolyloxy)-4-(trifluoromethyl)benzamide] |
| 78 | 27 | COc1ccccc1Oc1cccc(C(F)(F)F)c1C(=O)Nc1cccc(S(N)(=O)=O)c1 [Compound 57, 2-(2-methoxyphenoxy)-N-(3-sulfamoylphenyl)-6-(trifluoromethyl)benzamide] |
| 95 | 9 | NS(=O)(=O)c1cccc(NC(=O)c2ccc(OC(F)(F)F)cc2Oc2ccc(F)cc2)c1 [Compound 55, 2-(4-fluorophenoxy)-N-(3-sulfamoylphenyl)-4-(trifluoromethoxy)benzamide] |
| 69 | 7 | COc1ccc(Oc2cc(C(F)(F)F)cc(C(F)(F)F)c2C(=O)Nc2cccc(S(N)(=O)=O)c2)c(F)c1 [Compound 91, 2-(2-fluoro-4-methoxyphenoxy)-N-(3-sulfamoylphenyl)-4,6-bis(trifluoromethyl)benzamide] |
| 96 | 23 | Cc1cc(F)ccc1Oc1ccc(F)cc1C(=O)Nc1cccc(S(N)(=O)=O)c1 [Compound 21, 5-fluoro-2-(4-fluoro-2-methylphenoxy)-N-(3-sulfamoylphenyl)benzamide] |
| 92 | 7 | COc1ccc(Oc2cc(C(F)(F)F)cc(C(F)(F)F)c2C(=O)Nc2cccc(S(N)(=O)=O)c2)cc1F [Compound 90, 2-(3-fluoro-4-methoxyphenoxy)-N-(3-sulfamoylphenyl)-4,6-bis(trifluoromethyl)benzamide] |
| 83 | 5 | COc1cc(F)ccc1Oc1cc(C(F)(F)F)ccc1C(=O)Nc1cccc(S(N)(=O)=O)c1 [Compound 14, 2-(4-fluoro-2-methoxyphenoxy)-N-(3-sulfamoylphenyl)-4-(trifluoromethyl)benzamide] |
| 72 | 8 | COc1ccc(Oc2cc(C(F)(F)F)ccc2C(=O)Nc2cccc(S(N)(=O)=O)c2)c(OC)c1 [Compound 50, 2-(2,4-dimethoxyphenoxy)-N-(3-sulfamoylphenyl)-4-(trifluoromethyl)benzamide] |
